Data as given in patent US12239705B2, “Therapeutic mitigation of epithelial infection” (priority 2018, dated 2025).

Columns and labels:
vaccinia virus = assay: Vaccinia virus plaque formation in IL-4/13-treated PHFK exposed to P6; assay type: cell-based; settings: PHFK in IL-4 and IL-13; 50 or 200 nM; 200 pfu VV; three days post infection; n=7 donors
PHFK cells [1] = assay: TEER barrier function of IL-4/13-treated PHFK exposed to P6; assay type: cell-based, human; settings: PHFK in IL-4 and IL-13 for two days; 50 or 100 nM; versus DMSO control
Experimental: TEER was taken daily. Data was normalized to Th2 treated samples (n=5-7 donors for TEER (SEM)). Significance was tested versus a DMSO control.

PHFK cells [2] = assay: Cell viability of differentiated PHFK by LDH and WST-1 assay; settings: PHFK differentiated 2 days; 24 hours
Experimental: Briefly, PHFK cells were differentiated for 2 days in the same manner described above. […] Cell viability was measured by LDH and WST-1 assay 24 hours later.

Question: Which “keratinocyte susceptibility to viral infection (plaque number normalized to IL-4/13 treated controls)” value (vaccinia virus) does the source give for `CC(C)(C)c1nc2c3cc[nH]c(=O)c3c3cc(F)ccc3c2[nH]1` [P6, Pyridone 6] here?
Answer: reversed keratinocyte susceptibility to viral infection in a dose dependent manner

Question: What about the “barrier function (TEER normalized to Th2 treated samples)” value (PHFK cells [1]) of the same molecule?
Answer: improved barrier function in keratinocytes in a dose dependent manner

Question: What about the “concentration not toxic to keratinocytes (LDH and WST-1)” value (PHFK cells [2]) of the same molecule?
Answer: ≥ 1000 nM
